Values quoted from earlier work as cited in patent publication US12478584B1, “Atomoxetine hydrochloride oral suspension and use thereof” (OWP Pharmaceuticals, Inc., priority 2025, dated 2025).

Conditions: standard temperature and pressure

- water solubility: 27.8 mg/mL
SMILES: CNCC[C@@H](Oc1ccccc1C)c1ccccc1.Cl [Atomoxetine, (3R)—N-methyl-3-(2-methylphenoxy)-3-phenylpropan-1-amine]
